Measurements taken from ChEMBL document CHEMBL1201862, “PubChem BioAssay data set” (2004).
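Exposure lasted 48 hours, with cells grown in 96-well plates and compounds tested at five concentrations. At the GI50, growth is halved.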 The source made the active and inactive calls. Cut-off read from the data, not from the text of the source: active = GI50 up to about 1.1 µM and inactive = higher.

What was measured:
Experiment in all cases: DTP human tumour cell line panel, 48 h
EKVX = system: EKVX
K562 = system: K562
TK-10 = system: TK-10
NCI-H522 = system: NCI-H522
LOX IMVI = system: LOX IMVI
HT-29 = system: HT-29
SK-MEL-2 = system: SK-MEL-2
MDA-MB-231 = system: MDA-MB-231
HOP-92 = system: HOP-92
UACC-62 = system: UACC-62
CAKI-1 = system: CAKI-1
KM12 = system: KM12
RPMI-8226 = system: RPMI-8226
MDA-MB-435 = system: MDA-MB-435
OVCAR-3 = system: OVCAR-3
786-0 = system: 786-0
OVCAR-4 = system: OVCAR-4
SW-620 = system: SW-620
SF-539 = system: SF-539
NCI-H226 = system: NCI-H226
A498 = system: A498
SK-MEL-28 = system: SK-MEL-28
U-251 = system: U-251
MDA-N = system: MDA-N
UO-31 = system: UO-31
SF-295 = system: SF-295
HL-60 = system: HL-60
M14 = system: M14
IGROV-1 = system: IGROV-1
NCI-H23 = system: NCI-H23
A549 = system: A549
ACHN = system: ACHN
NCI-H460 = system: NCI-H460
Malme-3M = system: Malme-3M
SN12C = system: SN12C
RXF 393 = system: RXF 393
UACC-257 = system: UACC-257
COLO 205 = system: COLO 205
PC-3 = system: PC-3
Hs-578T = system: Hs-578T
SR = system: SR
SF-268 = system: SF-268
SK-MEL-5 = system: SK-MEL-5
OVCAR-8 = system: OVCAR-8
HOP-62 = system: HOP-62
MOLT-4 = system: MOLT-4
DU-145 = system: DU-145
T47D = system: T47D
HCT-116 = system: HCT-116
HCT-15 = system: HCT-15
HCC 2998 = system: HCC 2998
SNB-19 = system: SNB-19
NCI/ADR-RES = system: NCI/ADR-RES
CCRF-CEM = system: CCRF-CEM
SK-OV-3 = system: SK-OV-3
OVCAR-5 = system: OVCAR-5

Measured: GI50

CCOC(=O)/C(C(=S)NC)=C(/N)N1CCCC1
inactive: EKVX > 100 µM | K562 > 100 µM | TK-10 > 100 µM | NCI-H522 > 100 µM | LOX IMVI > 100 µM | HT-29 > 100 µM | SK-MEL-2 > 100 µM | MDA-MB-231 > 100 µM | HOP-92 > 100 µM | UACC-62 > 100 µM | CAKI-1 77.1 µM | KM12 > 100 µM | RPMI-8226 > 100 µM | MDA-MB-435 > 100 µM | OVCAR-3 > 100 µM | 786-0 > 100 µM | OVCAR-4 > 100 µM | SW-620 > 100 µM | SF-539 > 100 µM | NCI-H226 > 100 µM | A498 > 100 µM | SK-MEL-28 > 100 µM | U-251 > 100 µM | MDA-N > 100 µM | UO-31 71.6 µM | SF-295 > 100 µM | HL-60 > 100 µM | M14 > 100 µM | IGROV-1 > 100 µM | NCI-H23 > 100 µM | A549 > 100 µM | ACHN > 100 µM | NCI-H460 > 100 µM | Malme-3M > 100 µM | SN12C > 100 µM | RXF 393 > 100 µM | UACC-257 > 100 µM | COLO 205 > 100 µM | PC-3 > 100 µM | Hs-578T > 100 µM | SR > 100 µM | SF-268 > 100 µM | SK-MEL-5 > 100 µM | OVCAR-8 > 100 µM | HOP-62 > 100 µM | MOLT-4 > 100 µM | DU-145 > 100 µM | T47D > 100 µM | HCT-116 > 100 µM | HCC 2998 > 100 µM | SNB-19 > 100 µM | NCI/ADR-RES > 100 µM | CCRF-CEM > 100 µM | SK-OV-3 > 100 µM | OVCAR-5 > 100 µM
> 100 µM: HCT-15
